In brackets after ≈: the same amount, converted by molar mass.
What was measured:
CYP3A4 = CYP3A4 (Homo sapiens, UniProt P08684); assay: CYP3A4 inhibition; assay type: in vitro ADME
[1] = Metabolic study and intrinsic clearance in MLM; assay type: in vitro ADME
Kinetic solubility = assay type: physicochemical; settings: kinetic from dmso stock
LTA4H = molecular target: T1, LTA4H (Homo sapiens, UniProt P09960); assay: LTA4H inhibition; assay type: biochemical; settings: read-out: IC50 against LTA4H
T1 sequence (P09960 1-611): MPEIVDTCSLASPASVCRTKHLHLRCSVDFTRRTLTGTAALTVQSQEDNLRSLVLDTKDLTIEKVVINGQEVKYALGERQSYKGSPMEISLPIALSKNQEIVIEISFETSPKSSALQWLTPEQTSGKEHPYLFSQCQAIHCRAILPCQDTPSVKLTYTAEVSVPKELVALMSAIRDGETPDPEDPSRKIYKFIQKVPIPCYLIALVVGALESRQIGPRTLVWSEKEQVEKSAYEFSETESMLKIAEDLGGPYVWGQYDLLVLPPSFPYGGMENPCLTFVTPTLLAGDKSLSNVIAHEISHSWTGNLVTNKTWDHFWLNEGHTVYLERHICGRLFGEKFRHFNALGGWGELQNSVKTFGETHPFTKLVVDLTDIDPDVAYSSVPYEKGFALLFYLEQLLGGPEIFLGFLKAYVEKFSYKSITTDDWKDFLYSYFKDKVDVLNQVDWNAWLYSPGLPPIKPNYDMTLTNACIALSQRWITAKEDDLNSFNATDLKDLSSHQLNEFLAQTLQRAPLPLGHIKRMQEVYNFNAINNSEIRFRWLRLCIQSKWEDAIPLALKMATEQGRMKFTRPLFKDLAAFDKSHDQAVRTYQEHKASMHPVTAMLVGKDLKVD
Procedure: NDS100178 series of compound primarily activates imidazoline receptor […]. In high glucose condition this activation leads to formation of Diacylglycerol (DAG). DAG subsequently generates Arachidonic Acids (AA) in the cell. Metabolites of AA especially epoxyeicosatrienenoic acids (EETs) and hydroxyeicosatetrenoic acids (HETEs) induce exocytosis leading to increased secretion of insulin from the cells. The other major signalling pathway that can alter the glucose/DAG induced AA pool is the leukotriene pathway, that, by metabolizing AA into different leukotrienes and not EET and HETE can suppress its insulin secretion effect. Molecules that can inhibit metabolism of AA through leukotriene pathway can maintain AA pool leading to its metabolism only through EETs and HETEs and thus can enhance increase insulin secretion. One of the major enzymes in leukotriene pathway is LTA4H hydrolase that converts LTA4 into LTB4, a AA derivative that suppresses insulin secretion. A novel finding that inhibiting LTA4H can enhance insulin secretion has been established by the inventors. NDS100178 inhibits LTA4H (IC50<500 nM) while the IC50 against LTA4H target of compound 6 from patent US20040009976 Compound: 5-Chloro-2-methyl-3-(4,5-dihydro-1-H-imidazol-2-yl)-1H-indole) is above 10 uM.

MIN6 cells = assay: Insulinotropic activity: insulin secretion from MIN6 cells (ELISA based assay); assay type: cell-based, mouse; settings: for Insulin Secretion: standard error in bracket
Procedure: Insulinotropic activity of the NDS100178 and NDS100179 was measured by a well-optimized ELISA based Assay (Shantani Protocol #5205) described below.
Materials • MIN6Cell (source: National Center for Cell Sciences, Pune) • Mouse Insulin ELISA kit (Mercodia, 10-1247-01) • Plate Shaker (MixMatefromEppendorf) • HEPES Balanced Krebs-Ringer bicarbonate buffer (components as follows)
Method • i. Seed proliferating culture of MIN-6 cells into a 6 well plate with almost half the confluency two days before the experiment. • ii. One the day of Insulin induction experiment, the cells should become almost confluent and are in good condition. • iii. On the day of experiment, first prepare 1×KRB-HEPES buffer with 0.1% BSA (for rinse) and without BSA (for equilibration and insulin induction) as described in the materials. • iv. Prepare equilibration buffer: 1×KRB-HEPES buffer without BSA containing 3.3 mM glucose (to bring down the glucose level of all cells to the same level). For example, add 66 ul 1 M glucose stock solution to 20 ml KRB-HEPES buffer without BSA. • v. Prepare the stimulating buffer (insulin induction): 1×KRB-HEPES buffer without BSA containing the defined glucose level (in most cases, it will be 16.7 mM glucose) and the desired concentration of molecule. • vi. Pre warm all the buffers to 37° C. in the water bath (at 15 minutes). • vii. Remove media from all wells, rinse each well twice with 2 ml KRB-HEPES buffer containing 0.1% BSA. • viii. Add 2 ml of equilibration buffer in each well and incubate at 37° C. for half an hour. • ix. After the incubation add 2 ml of stimulating buffer in respective wells (properly labelled) and incubate 37° C. for 1 hour. • x. In the meanwhile, turn on the refrigerated centrifuge and set the temperature to 4° C. Take out enzyme conjugate, diluent buffer, Calibrator 0 and stripes needed (for example, two stripes for 8 samples to be run in duplicate) from Mercodia ELISA kit box (store at 4° C.) and warm up them to RT. • xi. […] Centrifuge the tubes at 600 g for 5 min. • xiii. Take out 500 ul in fresh properly labelled precooled tubes. • xiv. Now dilute the samples 1:30 in calibrator 0 i.e. add 3 ul of each sample to 87 ul of Calibrator 0 in 8 different properly labelled 0.5 ml tubes. Mix them well. • xv. Prepare 1× enzyme conjugate buffer, i.e. mix 180 ul enzyme (11×) with 1800 ul diluent buffer for ELISA of two stripes. • xvi. Add 10 ul of each sample (diluted, in duplicate) in the two adjacent wells. Be careful not to touch the bottom. • xvii. Carefully add 100 ul of Enzyme Conjugate buffer (1×) to each well and incubate on a plate shaker (eppendorf MixMate) at 800 rpm for 2 hours at 25° C. • xviii. 45 min before the incubation is over take out wash buffer, substrate TMB and Stop solution. Keep them at RT. • xix. 5 min before the incubation is over prepare 1× wash buffer (21×), i.e. 40 ml distilled water+2 ml (21×) wash buffer in a reservoir. • xx. After the incubation is over, wash each well 7 times with 350 ul wash buffer. Use a multichannel (175 ul). • xxi. After the washing add 200 uL substrate TMB solution in each well. Maintain a proper pace. • xxii. Allow to incubate for 15 min. Set the program on the plate reader, to take absorbance read at 450 nm. Add a 5 sec shake step to allow proper mixing. • xxiii. After incubation immediately add 50 ul Stop solution in each well at same pace and take absorbance read at 450 nm.
Assay conditions were kept same in all the assays. The difference in absorption-value for control experiment (no treatment with molecule) over different days is attributed to cell culture conditions. Other varying conditions are specified in the respective graphs.
[Note: If not mentioned specifically, HG=High Glucose (16.7 mM), LG=Low Glucose (3.3 mM)]

Metabolic study in HLM = assay type: in vitro ADME

CYP3A4, sequence (P08684 whole entry): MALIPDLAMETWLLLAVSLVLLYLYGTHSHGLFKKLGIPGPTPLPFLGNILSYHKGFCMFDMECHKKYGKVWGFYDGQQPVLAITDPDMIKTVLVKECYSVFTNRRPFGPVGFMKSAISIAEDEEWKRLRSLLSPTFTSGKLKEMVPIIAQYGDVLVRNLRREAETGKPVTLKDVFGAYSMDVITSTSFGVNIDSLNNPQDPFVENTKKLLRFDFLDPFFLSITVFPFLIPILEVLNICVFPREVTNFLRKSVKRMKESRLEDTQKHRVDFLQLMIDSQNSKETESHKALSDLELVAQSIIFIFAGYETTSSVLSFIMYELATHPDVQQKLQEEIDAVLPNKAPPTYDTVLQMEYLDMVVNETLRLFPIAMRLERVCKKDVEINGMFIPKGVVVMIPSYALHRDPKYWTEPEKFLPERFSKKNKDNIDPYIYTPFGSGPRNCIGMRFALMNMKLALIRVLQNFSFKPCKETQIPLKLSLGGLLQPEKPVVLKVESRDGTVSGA

Row | IC50 (CYP3A4) | SMILES | CYP3A4 Inhibition (CYP3A4) | Intrinsic Clearnace MLM [1] | Metabolic Study MLM Mean % PCR* [1] | solubility kinetic (Kinetic solubility) | IC50 (LTA4H) | Insulin Secretion (MIN6 cells; MIN6 cells, compound 0.1 μM) | Insulin Secretion (MIN6 cells; MIN6 cells, compound 1.0 μM) | Metabolic Study HLM Mean % PCR* (Metabolic study in HLM) | melting point | insulin secretion from MIN6 cells in high glucose conditions (MIN6 cells; 33 uM, 1 hour, high glucose (16.7 mM), three different days) | insulin secretion over control (MIN6 cells; MIN6 cells, 10 nM) | insulin secretion over control (MIN6 cells; MIN6 cells, 50 nM) | increase in insulin secretion (MIN6 cells; MIN6 cells, 100 nM) | Insulin Secretion (MIN6 cells; MIN6 cells, compound 10.0 μM) | glucose dependence of insulinotropic activity (MIN6 cells; MIN6 cells, high glucose vs lower glucose conditions)
1 |  | Cc1[nH]c2ccc(Cl)cc2c1C1=NCCN1 [Example-6 of Patent US20040009976, 5-Chloro-2-methyl-3-(4,5-dihydro-1-H-imidazol-2-yl)-1H-indole, reference compound] | No inhibition | 21.3 μl/min/mg of protein | 64.83% | 196 µM (≈ 45.9 µg/mL) | > 10 µM | 1.39 (0.15) ng/ml | 3.68 (2.11) ng/ml | 99.11% |  |  |  |  |  |  | 
2 |  | Clc1ccc2[nH]nc(C3=NCCN3)c2c1 [NDS100178, 5-Chloro-3-(4,5-dihydro-1H-imidazol-2-yl)-1H-indazole] | No inhibition | 80.8 μl/min/mg of protein | 38.84% | 214 µM (≈ 47.3 µg/mL) | < 0.5 µM | 8.91 (1.6) ng/ml | 12.49 (1.9) ng/ml | 79.70% | 248 to 249 °C | significant increase in the insulin secretion | No significant difference over the control | No significant difference over the control | more than 100% | 35.09 (4.0) ng/ml | glucose dependent
3 |  | c1ccc2c(C3=NCCN3)n[nH]c2c1 [NDS100277, 3-(4,5-dihydro-1H-imidazol-2-yl)-1H-indazole] |  |  |  |  |  | 11.87 (0.8) ng/ml | 14.66 (0.4) ng/ml |  |  |  |  |  |  | 20.96 (1.7) ng/ml | 
4 |  | Cn1nc(C2=NCCN2)c2ccccc21 [NDS100278, 3-(4,5-dihydro-1H-imidazol-2-yl)-1-methyl-1H-indazole] |  |  |  |  |  | 12.43 (1.1) ng/ml | 10.80 (0.2) ng/ml |  |  |  |  |  |  | 13.16 (1.6) ng/ml | 
5 |  | c1ccc2c(C3=NC4CCCCC4N3)n[nH]c2c1 (stereo not drawn) [NDS100279, 3-(3a,4,5,6,7,7a-hexahydro-1H-benzo[d]imidazol-2-yl)-1H-indazole] |  |  |  |  |  | 10.45 (1.6) ng/ml | 14.57 (3.0) ng/ml |  |  |  |  |  |  | 21.45 (0.9) ng/ml | 
6 |  | Clc1ccc2[nH]nc(C3=NC4CCCCC4N3)c2c1 (stereo not drawn) [NDS100281, 5-chloro-3-(3a,4,5,6,7,7a-hexahydro-1H-benzo[d]imidazol-2-yl)-1H-indazole] |  |  |  |  |  | 14.73 (0.5) ng/ml | 16.91 (0.1) ng/ml |  |  |  |  |  |  | 20.85 (0.8) ng/ml | 
7 | > 10 µM | CCn1nc(C2=NCCN2)c2cc(Cl)ccc21 [NDS100282, 5-Chloro-3-(4,5-dihydro-1H-imidazol-2-yl)-1-ethyl-1H-indazole] |  | 56.4 μl/min/mg of protein | 33.27% | 202 µM (≈ 50.1 µg/mL) |  | 13.02 (0.3) ng/ml | 18.73 (1.0) ng/ml | 71.71% |  |  |  |  |  | 33.15 (0.7) ng/ml | 
8 |  | Clc1ccc2c(c1)c(C1=NCCN1)nn2Cc1ccccc1 [NDS100283, 1-Benzyl-5-chloro-3-(4,5-dihydro-1H-imidazol-2-yl)-1H-indazole] | No inhibition | 145.5 μl/min/mg of protein | 19.09% | 113 µM (≈ 35.2 µg/mL) |  | 11.35 (1.0) ng/ml | 20.08 (0.8) ng/ml | 86.02% |  |  |  |  |  | 50.45 (3.8) ng/ml | 
